“Also recorded” adds a separate entry of the source.
Columns and labels:
[1] = Confocal imaging of giant vesicles containing DPPC-TC-ONOO^− treated with redox species
Procedure: FIG. 8A: conceptual illustration of function of the model protocell. FIG. 8B: confocal images acquired for untreated (top panel) and peroxynitrite-treated (middle and bottom panels) GVs. FIG. 8C: confocal images acquired for GVs treated with other RNS and ROS. FIGS. 8B-8C: vesicles were prepared from POPC (98.5%, molar ratio) and DPPC-TC-ONOO^− (1%) via electroformation. Liss-Rhod PE dye (red, 560 nm excitation) was used at 0.5 mol % to label vesicle membranes. […] Scale bar=5 μm. In most biomimetic systems that rely on compartmentalization, physical membrane boundaries are comprised of self-assembled lipids. Biomimetic membranes can be represented by GVs, which have dimensional properties (1-30 μm in diameter) relevant to those of mammalian cells (10-100 μm), display physical characteristics feasible for confocal fluorescence imaging, and are utilized for bottom-up construction of biomimetic systems. […] Given the longer timescale required for data acquisition in microscopy compared to fluorescence measurements by plate reader, the pH of imaging buffers was set to 8.5, which extended the lifetime of peroxynitrite. […] Vesicle size distribution was analyzed by dynamic light scattering (DLS), confirming the presence of GVs. […] GVs were then imaged using fluorescence confocal microscopy. […]

HeLa and RAW 264.7 cells = assay: MTT cell viability assay; assay type: cell-based; conditions: 8-250 μM, 24-hour period
Procedure: With a feasible liposome preparation and treatment protocol established for live cell imaging, attention was turned to assessing the cytocompatibility of the LNPs, with or without DPPC-TC-ONOO^−, DPPC-TC, and the oxa-spiro[4,5] decenone 6a. A standard 3-(4,5-dimethylthiazol-2-yl)-2,5-diphenyl tetrazolium bromide (MTT) cell viability assay in HeLa and RAW 264.7 cells treated with these molecules (8-250 μM) over a 24-hour period. The dose-response curves provided high IC50 values for each compound: DPPC-TC-ONOO− (≥100 μM), DPPC-TC (≥50 μM), and 6 (≥70 μM).

RAW-264.7 cells = assay: Confocal imaging and colocalization in live RAW-264.7 cells; assay type: cell-based, murine
Procedure: FIGS. 10A-10E: confocal imaging of lipid environments targeted by ONOO^− in live RAW246.7 cells. Cells were seeded into glass microscope dishes, incubated with LNPs (50 μM) and stained with organelle trackers and/or actin dye prior to imaging. LNPs obtained from a 47.5:47.5:5.0 molar ratio of DOTMA, DOPE, and DPPC-TC-ONOO^−. FIG. 10A: cells treated with LNPs, stimulated with LPS. Time coarse images acquired after addition of LPS. FIG. 10B: cells treated with LNPs and 1400 W. FIG. 10C: cells treated with LNPs, then with 1400 W and LPS. FIGS. 10D-10E: quantitative colocalization study of cells treated with LNPs and stimulated with LPS. Pearson's correlation coefficient (PCC) was calculated for quantitative assessment of colocalization using organelle trackers as described above. Scale bars=20 μm (FIGS. 10A-10D) or 5 μm (FIG. 10E). With the utility of DPPC-TC-ONOO^− proven in synthetic protocell membranes, incorporation into live HeLa and RAW 264.7 cells was sought, which are relevant to redox-induced stress and have well-recognized pathways for RNS and ROS production. Lipid nanoparticles (LNPs) (˜100 nm in diameter) was used to deliver DPPC-TC-ONOO− into cells. This method circumvented the limited solubility of DPPC-TC-ONOO− due to the relatively hydrophobic butanone-coumarin motif. LNPs were obtained via sonication from 1,2-di-O-octadecenyl-3-trimethylammonium propane (DOTMA), 1,2-dioleoyl-sn-glycero-3-phosphoethanolamine (DOPE), and DPPC-TC-ONOO− (47.5:47.5:5.0 molar ratio), which were hydrated with a 300 mM sucrose solution. DOTMA and DOPE were chosen as the carrier lipids due to their cationic/zwitterionic natures, which has been postulated to enhance uptake through the cell membrane. The impact of different LNP compositions and incubation times on the cellular incorporation of DPPC-TC-ONOO^− was assessed. […] Specifically, LNPs containing greater than 10 mol % DPPC-TC-ONOO− were considerably more heterogenous in size (up to […] observed, in contrast to ˜100 nm) and nonuniform in vesicle lamellarity. Those with less than 4 mol % DPPC-TC-ONOO− led to insufficient fluorescence signal. To balance these counteracting factors, 5 mol % DPPC-TC-ONOO− was used, with 47.5 mol % DOTMA and DOPE, each. In these initial assays, cells were incubated with LNPs for up to 15 hours to complete the uptake and intracellular localization of DPPC-TC-ONOO−. Shorter incubation times (3-to-5 hours) led to its uptake but not subcellular localization. […] However, high serum concentration in DMEM caused interference between LNPs and serum-protein, resulting in aggregate formation as observed by microscopy. To overcome this obstacle, LNPs (50 μM) were used in a mixture of 2/3 volumetric ratio of sucrose solution and Opti-MEM™, a reduced serum medium known to increase the efficiency of lipofection. The investigations were expanded to include murine-derived macrophage model, RAW-264.7 (FIGS. 10A-10E). RNS play important roles in macrophage activation and differentiation as part of the inflammatory response. Treatment of RAW-264.7 cells with LPS leads to the expression of iNOS, which produces NO·, which then reacts with O2·^−, generating ONOO−. RAW-264.7 cells were treated with LNPs containing either DPPC-TC (positive control) or DPPC-TC-ONOO^− (FIGS. 10A-10E). […] Assessment of DPPC-TC-ONOO^− localization in RAW-264.7 cells was carried out using the ER, Golgi, mitochondrion, and lysosome trackers (FIGS. 10D-10E).

IC50 (HeLa and RAW 264.7 cells): ≥ 100 µM
Compound: CCCCCCCCCCCCCCCC(=O)OCC(COP(=O)([O-])OCC[N+](C)(C)Cc1cn(-c2cc3ccc(OC(=O)Oc4ccc(CCC(=O)C(F)(F)F)cc4)cc3oc2=O)nn1)OC(=O)CCCCCCCCCCCCCCC (racemic) [DPPC-TC-ONOO^−]
GV membrane fluorescence at 405 nm excitation ([1]; GVs of POPC and DPPC-TC-ONOO^− (~99:1), ONOO^− 100 μM): substantial increase in membrane fluorescence; also recorded: strong fluorescence
GV fluorescence at 405 nm excitation ([1]; GVs of POPC and DPPC-TC-ONOO^−, other redox species (NO·, H2O2, HO·, ^1O2, O2·^−) 100 μM, 5 min): essentially no fluorescence generation; also recorded: minimal fluorescence
signal in the DPPC-TC channel (RAW-264.7 cells; RAW-264.7, 1400 W only or 1400 W and LPS): little-to-no signal
PCC (RAW-264.7 cells; RAW-264.7, ER tracker): 0.946
PCC (RAW-264.7 cells; RAW-264.7, Golgi tracker): 0.729
fluorescence intensity (RAW-264.7 cells; RAW-264.7, LNPs, stimulation with LPS over 16 hours): substantial increase in fluorescence intensity
signal at 405/475 nm (RAW-264.7 cells; RAW-264.7, LNPs, unstimulated): negligible levels of signal
